Numbered stars: 1 amine (or outer) side, 2 acyl side, 3 side chain; on linkers, the order of the positions; unused ones are H or OH. Bridge positions count the residues as written; N and C are the ends. Square brackets hold non-standard residues; d marks the D form. Peptide text beside a SMILES is read from it. I, II: the chains in the order shown. Actinocin(9to1) = Cc1c2oc3c(C)ccc(C(=O)[*:1])c3nc-2c(C(=O)[*:2])c(N)c1=O; NMeV = CN[C@H](C(=O)O)C(C)C; Sar = CNCC(=O)O
Key:
[1] = system: NSCLC, multi-focal, recurrent adenocarcinoma (lymph node); assay: MiCK assay, drug-induced apoptosis, Table 3 tumor D2; assay type: cell-based, human; details: Table 3 tumor D2: NSCLC, multi-focal, recurrent adenocarcinoma (lymph node); 48 hours with drug
Text: (§1) Data were obtained optically using Mie light-scattering.
(§2) Do a test well. […] Look at the well under the inverted microscope. […] Repeat until optimal cell concentration is found. Plate the cells into the wells.

[2] = system: NSCLC, bilateral well-differentiated adenocarcinoma (site 1A); assay: MiCK assay, drug-induced apoptosis, Table 3 tumor B1; assay type: cell-based, human; details: Table 3 tumor B1: NSCLC, bilateral well-differentiated adenocarcinoma (site 1A); 48 hours with drug
Text: as §1, §2

[3] = system: NSCLC, multi-focal adenocarcinoma (site A); assay: MiCK assay, drug-induced apoptosis, Table 3 tumor E1; assay type: cell-based, human; details: Table 3 tumor E1: NSCLC, multi-focal adenocarcinoma (site A); 48 hours with drug
Text: as §1, §2

[4] = system: NSCLC, multi-focal, recurrent adenocarcinoma (site A); assay: MiCK assay, drug-induced apoptosis, Table 3 tumor C1; assay type: cell-based, human; details: Table 3 tumor C1: NSCLC, multi-focal, recurrent adenocarcinoma (site A); 48 hours with drug
Text: as §1, §2

[5] = system: NSCLC, bilateral well-differentiated adenocarcinoma (site 1B); assay: MiCK assay, drug-induced apoptosis, Table 3 tumor B2; assay type: cell-based, human; details: Table 3 tumor B2: NSCLC, bilateral well-differentiated adenocarcinoma (site 1B); 48 hours with drug
Text: as §1, §2

[6] = system: Pancreatic islet cell cancer (lymph node); assay: MiCK assay, drug-induced apoptosis, Table 4 tumor A1; details: Table 4 tumor A1: Pancreatic islet cell cancer (lymph node); 48 hours with drug
Method: (§3) After overnight incubation, chemotherapy drugs were added to the wells of the 96-well plate in 5 μL aliquots or to the wells of a 384-well plate in 2.5 μL aliquots using an automated pipettor. The number of drugs or drug combinations and the number of concentrations tested depended on the number of viable malignant cells that were isolated from the tumor specimen. The drug concentrations, determined by molarity, were those indicated by the manufacturer as the desired blood level concentration plus or minus one serial dilution if enough cells were available.
(§4) Following drug addition, the plate was incubated for 30 min. at 37° C. in a 5% carbon dioxide humidified atmosphere incubator. Each well was then overlayed with sterile mineral oil, and the plate was placed into the incubator chamber of a microplate spectrophotometric reader. The optical density at 600 nanometers was read and recorded every 5 minutes over a period of 48 hours.
(§5) Patients: Three patients were included in this study. Two tumor samples from different tumor sites were collected from each patient. Both samples from each patient were collected on the same day.

[7] = system: Lung adenocarcinoma (pleural effusion); assay: MiCK assay, drug-induced apoptosis, Table 4 tumor B1; assay type: cell-based, human; details: Table 4 tumor B1: Lung adenocarcinoma (pleural effusion); 48 hours with drug
Text: as §1
Patients: Three patients were included in this study. […] Patient A was diagnosed with pancreatic islet cell cancer; sample 1 was collected from lymph node and sample 2 was collected from the primary tumor. Patient B was diagnosed with lung cancer NSCLC adenocarcinoma; sample 1 was collected from pleural effusion and sample 2 was collected from solid tumor. […] Ages of the patients ranged from 51-79 years old with an average age of 65 years. One patient was […] and two were female.

[8] = system: Probable mesothelioma (pleural effusion); assay: MiCK assay, drug-induced apoptosis, Table 3 tumor A2; assay type: cell-based, human; details: Table 3 tumor A2: Probable mesothelioma (pleural effusion); 48 hours with drug
Method: as §1
When the optimal cell concentration is reached, put the cells in the plate and incubate overnight in the incubating chamber of the incubator (37° C.).

[9] = system: Lung small cell carcinoma (site A); assay: MiCK assay, drug-induced apoptosis, Table 4 tumor C1; details: Table 4 tumor C1: Lung small cell carcinoma (site A); 48 hours with drug
Method: as §3, §4, §5

[10] = system: Lung adenocarcinoma (site B); assay: MiCK assay, drug-induced apoptosis, Table 4 tumor C2; details: Table 4 tumor C2: Lung adenocarcinoma (site B); 48 hours with drug
Method: as §3
(§6) Following drug addition, the plate was incubated for 30 min. at 37° C. in a 5% carbon dioxide humidified atmosphere incubator. Each well was then overlayed with sterile mineral oil, and the plate was placed into the incubator chamber of a microplate spectrophotometric reader. The optical density at 600 nanometers was read and recorded every 5 minutes over a period of 48 hours. Optical density increases, which correlates with apoptosis, were converted to kinetic units (KU) of apoptosis by a proprietary software ProApo with a formula described in the Kravtsov reference incorporated by reference (i.e. Kravtsov V. et al. “Use of the Microculture Kinetic Assay of apoptosis to determine chemosensitivities of leukemias.” Blood 1998; 92:968-980).
(§7) Purified tumor cells were cultured for 48 hours with individual drugs, and drug-induced apoptosis was measured using the MiCK assay as described in Example 1. Data were obtained optically using Mie light-scattering.

[11] = system: NSCLC, multi-focal, recurrent adenocarcinoma (right lung); assay: MiCK assay, drug-induced apoptosis, Table 3 tumor D1; assay type: cell-based, human; details: Table 3 tumor D1: NSCLC, multi-focal, recurrent adenocarcinoma (right lung); 48 hours with drug
Text: as §1, §2

[12] = system: Pancreatic islet cell cancer (primary tumor); assay: MiCK assay, drug-induced apoptosis, Table 4 tumor A2; details: 48 hours with drug
Method: as §3, §6, §7

Molecule	kinetic units (KU) of apoptosis [2]	kinetic units (KU) of apoptosis [5]	kinetic units (KU) of apoptosis [6]	kinetic units (KU) of apoptosis [8]	kinetic units (KU) of apoptosis [9]	also measured
O=P1(NCCCl)OCCCN1CCCl (centres unmarked) [4HI (Ifosfamide), Ifosfamide]	2.70 KU	0.70 KU	3.01 KU	3.40 KU	1.50 KU	kinetic units (KU) of apoptosis [1]: 1.20 KU; kinetic units (KU) of apoptosis [3]: 0.10 KU; kinetic units (KU) of apoptosis [4]: 0.50 KU; kinetic units (KU) of apoptosis [7]: 2.40 KU
O=c1[nH]cc(F)c(=O)[nH]1 [5FU, 5-Fluorouracil]	–	–	0.42 KU	–	–	–
Nc1nc2[nH]cc(CCc3ccc(C(=O)N[C@@H](CCC(=O)O)C(=O)O)cc3)c2c(=O)[nH]1 [Alimta, Pemetrexed]	1.40 KU	1.60 KU	0.22 KU	1.20 KU	1.40 KU	kinetic units (KU) of apoptosis [1]: 0.60 KU; kinetic units (KU) of apoptosis [10]: 0.70 KU; kinetic units (KU) of apoptosis [11]: 0.70 KU; kinetic units (KU) of apoptosis [4]: 0.80 KU
Cn1c(CCCC(=O)O)nc2cc(N(CCCl)CCCl)ccc21 [Bendamustine]	–	–	1.39 KU	–	–	–
O=NN(CCCl)C(=O)NC1CCCCC1 [CCNU]	–	–	1.00 KU	–	0.90 KU	–
O=NN(CCCl)C(=O)NCCCl [Carmustine]	–	–	0.82 KU	–	3.00 KU	kinetic units (KU) of apoptosis [10]: 0.50 KU; kinetic units (KU) of apoptosis [7]: 1.20 KU
Nc1nc(Cl)nc2c1ncn2[C@H]1C[C@H](O)[C@@H](CO)O1 [Cladribine]	–	–	0.61 KU	–	–	–
CN(C)/N=N/c1[nH]cnc1C(N)=O [Dacarbazine]	–	–	1.31 KU	–	–	kinetic units (KU) of apoptosis [12]: 0.00 KU
Cc1c2oc3c(C)ccc(C(=O)N[C@@H]4C(=O)N[C@H](C(C)C)C(=O)N5CCC[C@H]5C(=O)N(C)CC(=O)N(C)[C@@H](C(C)C)C(=O)O[C@@H]4C)c3nc-2c(C(=O)N[C@@H]2C(=O)N[C@H](C(C)C)C(=O)N3CCC[C@H]3C(=O)N(C)CC(=O)N(C)[C@@H](C(C)C)C(=O)O[C@@H]2C)c(N)c1=O [Dactinomycin] (I: T[dV]P[Sar][NMeV] / II: T[dV]P[Sar][NMeV]; ester I:1-I:C, II:1-II:C; linker I:N-II:N via Actinocin(9to1))	1.20 KU	0.90 KU	–	4.70 KU	7.70 KU	kinetic units (KU) of apoptosis [10]: 3.00 KU; kinetic units (KU) of apoptosis [11]: 0.90 KU; kinetic units (KU) of apoptosis [7]: 2.70 KU
COc1cccc2c1C(=O)c1c(O)c3c(c(O)c1C2=O)C[C@@](O)(C(C)=O)C[C@@H]3O[C@H]1C[C@H](N)[C@H](O)[C@H](C)O1 [Daunorubicin]	1.40 KU	1.40 KU	–	3.80 KU	8.10 KU	–
CO[C@H]1C[C@@H]2CC[C@@H](C)[C@@](O)(O2)C(=O)C(=O)N2CCCC[C@H]2C(=O)O[C@H]([C@H](C)C[C@@H]2CC[C@@H](OCCO)[C@H](OC)C2)CC(=O)[C@H](C)/C=C(\C)[C@@H](O)[C@@H](OC)C(=O)[C@H](C)C[C@H](C)/C=C/C=C/C=C/1C [Everolimus]	–	–	1.31 KU	–	0.50 KU	kinetic units (KU) of apoptosis [10]: 1.00 KU; kinetic units (KU) of apoptosis [12]: 0.00 KU
Cc1ccc(NC(=O)c2ccc(CN3CCN(C)CC3)cc2)cc1Nc1nccc(-c2cccnc2)n1 [Gleevec, imatinib]	–	–	0.39 KU	–	0.00 KU	–
CC(=O)[C@]1(O)Cc2c(O)c3c(c(O)c2[C@@H](O[C@H]2C[C@H](N)[C@H](O)[C@H](C)O2)C1)C(=O)c1ccccc1C3=O [Idarubicin]	1.20 KU	1.10 KU	1.22 KU	4.00 KU	8.00 KU	kinetic units (KU) of apoptosis [10]: 3.00 KU; kinetic units (KU) of apoptosis [11]: 1.30 KU; kinetic units (KU) of apoptosis [4]: 0.90 KU
C/C(=C\c1csc(C)n1)[C@@H]1C[C@@H]2O[C@]2(C)CCC[C@H](C)[C@H](O)[C@@H](C)C(=O)C(C)(C)[C@@H](O)CC(=O)N1 [Ixabepilone]	–	–	1.00 KU	–	–	–
N[C@@H](Cc1ccc(N(CCCl)CCCl)cc1)C(=O)O [Melphalan]	–	–	0.57 KU	–	–	kinetic units (KU) of apoptosis [7]: 3.10 KU
CO[C@@]12[C@H](COC(N)=O)C3=C(C(=O)C(C)=C(N)C3=O)N1C[C@@H]1N[C@@H]12 [Mitomycin]	1.20 KU	1.00 KU	1.04 KU	1.00 KU	6.30 KU	kinetic units (KU) of apoptosis [11]: 0.60 KU; kinetic units (KU) of apoptosis [4]: 0.00 KU; kinetic units (KU) of apoptosis [7]: 0.90 KU
O=C1c2c(O)ccc(O)c2C(=O)c2c(NCCNCCO)ccc(NCCNCCO)c21 [Mitoxantrone]	–	–	0.82 KU	–	1.60 KU	kinetic units (KU) of apoptosis [7]: 2.30 KU
CNC(=O)c1cc(Oc2ccc(NC(=O)Nc3ccc(Cl)c(C(F)(F)F)c3)cc2)ccn1 [Sorafenib]	–	–	1.57 KU	–	–	–
CN(N=O)C(=O)N[C@@H](C=O)[C@@H](O)[C@H](O)[C@H](O)CO [Streptozocin]	–	–	0.23 KU	–	–	kinetic units (KU) of apoptosis [12]: 0.0 KU
CCN(CC)CCNC(=O)c1c(C)[nH]c(/C=C2\C(=O)Nc3ccc(F)cc32)c1C [Sunitinib]	–	–	1.93 KU	–	–	kinetic units (KU) of apoptosis [7]: 0.70 KU; kinetic units (KU) of apoptosis [12]: 2.06 KU
C#Cc1cccc(Nc2ncnc3cc(OCCOC)c(OCCOC)cc23)c1 [Tarceva]	0.60 KU	0.60 KU	0.66 KU	0.80 KU	0.00 KU	kinetic units (KU) of apoptosis [10]: 0.70 KU; kinetic units (KU) of apoptosis [11]: 0.5 KU
Cn1nnc2c(C(N)=O)ncn2c1=O [Temozolomide]	–	–	0.62 KU	–	–	kinetic units (KU) of apoptosis [12]: 1.22 KU
CC(C)C[C@H](NC(=O)[C@H](Cc1ccccc1)NC(=O)c1cnccn1)B(O)O [Velcade, Bortezomib]	2.00 KU	2.00 KU	0.79 KU	1.10 KU	1.60 KU	kinetic units (KU) of apoptosis [10]: 1.80 KU; kinetic units (KU) of apoptosis [11]: 0.60 KU; kinetic units (KU) of apoptosis [4]: 0.20 KU; kinetic units (KU) of apoptosis [7]: 3.40 KU
Nc1ncn([C@@H]2O[C@H](CO)[C@@H](O)[C@H]2O)c(=O)n1 [Vidaza]	–	–	1.00 KU	–	–	–
CC[C@]1(O)C[C@@H]2CN(CCc3c([nH]c4ccccc34)[C@@](C(=O)OC)(c3cc4c(cc3OC)N(C)[C@H]3[C@@](O)(C(=O)OC)[C@H](OC(C)=O)[C@]5(CC)C=CCN6CC[C@]43[C@@H]65)C2)C1 [Vinblastine]	–	–	1.00 KU	–	3.10 KU	kinetic units (KU) of apoptosis [10]: 2.00 KU
CCCCCOC(=O)Nc1nc(=O)n([C@@H]2O[C@H](C)[C@@H](O)[C@H]2O)cc1F [Xeloda]	–	–	0.42 KU	–	–	kinetic units (KU) of apoptosis [12]: 0.90 KU
Bleomycin	1.90 KU	1.30 KU	–	1.00 KU	–	–
